Like-named read-outs stand apart in the source and are kept apart here.
Experiment: Pharmacokinetics of Compound 1 delivered via solid chow (plasma, LC-MS/MS)
Format: in vivo, C57BL/6J mice
Conditions: for Tmax / Tmin / Cmin / AUC / Cmax: C57BL/6J mice; for AUC / Cmax: C57BL/6J, mouse, plasma, po; for AUC: read-out: AUC9-10
Procedure: The pharmacokinetics of Compound 1 at three doses (0.1%, 0.3% or 1% (w/w)) when delivered via solid chow was determined in satellite wild type C57BL/6J mice. The first day Compound 1 was provided was defined as Day 0. On Day 3 and on Day 13 blood was obtained from mice at specified time points and the plasma concentration of Compound 1 was measured using liquid chromatography-tandem mass spectrometry.
AUC9-10 refers to area under the curve plotting plasma concentration over time (9 am to 10 pm) (hr·μg/mL); Cmax refers to maximal plasma concentration (μg/mL); Cmin refers to minimal plasma concentration (μg/mL); Tmax refers to the time at which the maximal plasma concentration was measured; and Tmin refers to the time at which the minimal plasma concentration was measured.

[1] = 0.1% (w/w) in chow, Day 3, clock time
[2] = 0.1% (w/w) in chow, Day 13, clock time
[3] = 0.3% (w/w) in chow, Day 3, clock time
[4] = 0.3% (w/w) in chow, Day 13, clock time
[5] = 1.0% (w/w) in chow, Day 3, clock time
[6] = 1.0% (w/w) in chow, Day 13, clock time

Tmax [1]: 10 pm
Tmin [1]: 1 pm
Cmin (0.1% (w/w) in chow, Day 3, plasma): 760 ng/mL
Tmax [2]: 10 pm
Tmin [2]: 1 pm
Cmin (0.1% (w/w) in chow, Day 13, plasma): 1000 ng/mL
Tmax [3]: 10 pm
Tmin [3]: 1 pm
Cmin (0.3% (w/w) in chow, Day 3, plasma): 3700 ng/mL
Tmax [4]: 10 pm
Tmin [4]: 9 am
Cmin (0.3% (w/w) in chow, Day 13, plasma): 4600 ng/mL
Tmax [5]: 4 pm
Tmin [5]: 1 pm
Cmin (1.0% (w/w) in chow, Day 3, plasma): 21000 ng/mL
Tmax [6]: 4 pm
Tmin [6]: 9 am
Cmin (1.0% (w/w) in chow, Day 13, plasma): 19000 ng/mL
AUC (0.1 % (w/w) in chow, 0.1% (w/w) in chow, Day 3, 9 am to 10 pm): 35000 ng·h/mL
Cmax (0.1 % (w/w) in chow, 0.1% (w/w) in chow, Day 3, plasma): 5200 ng/mL
AUC (0.1 % (w/w) in chow, 0.1% (w/w) in chow, Day 13, 9 am to 10 pm): 28000 ng·h/mL
Cmax (0.1 % (w/w) in chow, 0.1% (w/w) in chow, Day 13, plasma): 3600 ng/mL
AUC (0.3 % (w/w) in chow, 0.3% (w/w) in chow, Day 3, 9 am to 10 pm): 109000 ng·h/mL
Cmax (0.3 % (w/w) in chow, 0.3% (w/w) in chow, Day 3, plasma): 19000 ng/mL
AUC (0.3 % (w/w) in chow, 0.3% (w/w) in chow, Day 13, 9 am to 10 pm): 89000 ng·h/mL
Cmax (0.3 % (w/w) in chow, 0.3% (w/w) in chow, Day 13, plasma): 13000 ng/mL
AUC (1 % (w/w) in chow, 1.0% (w/w) in chow, Day 3, 9 am to 10 pm): 420000 ng·h/mL
Cmax (1 % (w/w) in chow, 1.0% (w/w) in chow, Day 3, plasma): 41000 ng/mL
AUC (1 % (w/w) in chow, 1.0% (w/w) in chow, Day 13, 9 am to 10 pm): 594000 ng·h/mL
Cmax (1 % (w/w) in chow, 1.0% (w/w) in chow, Day 13, plasma): 58000 ng/mL
Plasma concentrations (range over time points) (mice, 1.0% (w/w) in chow): 19000 to 58000 ng/mL
SMILES: O=C(O)c1cccc(-c2noc(-c3ccccc3F)n2)c1 [Compound 1, 3-[5-(2-fluoro-phenyl)-[1,2,4]oxadiazol-3-yl]-benzoic acid]

— patent publication US20170196842A1, “METHODS OF TREATMENT USING A 1,2,4-OXADIAZOLE BENZOIC ACID” (PTC Therapeutics, Inc., priority 2014, published 2017)
